Assay [1] relates to MEF cells. Kind of assay: Cell growth (cell number), MEF cells. It is filed as cell-based, mouse. As to conditions: IGFBP-3 up to 1 μg/ml. As for the experimental part:
FIG. 7 depicts the effect of TGF-β1 on DNA synthesis (A), cell growth (B) and PAI-1 expression (C) in MEF and PEA-13 cells. (A) Cells were treated with various concentrations of TGF-β1 as indicated. DNA synthesis was determined by measuring [methyl-^3H] thymidine incorporation into cellular DNA. The [methyl-^3H] thymidine incorporation in cells treated without TGF-β1 (100,861±3,720 and 103,262±6,722 cpm/well for MEF and PEA-13 cells, respectively) was taken as 0% inhibition. The negative values of inhibition indicate mitogenic activity. […] Each datapoint is the mean±S.D. of quadruplicate determinations. […] Data are representative of six similar experiments. (B) Cells were treated with various concentrations of TGF-β1 as indicated. The cell number was counted after a 4 day incubation. […] The negative values of the inhibition indicate the growth stimulatory activity. Each datapoint is the mean±S.D. of quadruplicate determinations. […] Data are representative of four similar experiments. (C) Cells were treated with various concentrations of TGF-β1 as indicated. The PAI-1 expression in these cells was determined by Northern blot analysis. […] The relative levels of the transcripts were quantified by a PhosphoImager. […]
Cells were plated at a density of 1-2×10^4 cells/dish in DMEM containing 1% fetal calf serum. The cell number was counted every day or after a 3-day incubation using a hematocytometer. […]

In assay [2] the test system is 32D/IRS-1 cells. Kind of assay: [methyl-3H] thymidine incorporation, 32D/IRS-1 cells. The assay is classed as cell-based, murine. As to conditions: 32D cells expressing IRS-1.
Assay [3] deals with Mv1Lu cells. Kind of assay: [methyl-3H] thymidine incorporation (DNA synthesis), Mv1Lu cells. The assay is classed as cell-based, mink. As to conditions: IGFBP-3 0.5 μg/ml, Mv1Lu.
In assay [4] the test system is IRS-2. Kind of assay: 32P metabolic labeling and immunoprecipitation of IRS-2, MB102-16 cells. The assay is classed as cell-based, mink. The settings on record: MB102-16 cells (αIβI); IGFBP-3 1 μg/ml, GM-CSF 1 nM.
In assay [5] the test system is MEF cells. Kind of assay: [methyl-3H] thymidine incorporation, MEF cells. It is filed as cell-based, mouse. As to conditions: IGFBP-3 up to 1 μg/ml. How it is done: FIG. 7 depicts the effect of TGF-β1 on DNA synthesis (A), cell growth (B) and PAI-1 expression (C) in MEF and PEA-13 cells. (A) Cells were treated with various concentrations of TGF-β1 as indicated. DNA synthesis was determined by measuring [methyl-^3H] thymidine incorporation into cellular DNA. The [methyl-^3H] thymidine incorporation in cells treated without TGF-β1 (100,861±3,720 and 103,262±6,722 cpm/well for MEF and PEA-13 cells, respectively) was taken as 0% inhibition. The negative values of inhibition indicate mitogenic activity. […] Each datapoint is the mean±S.D. of quadruplicate determinations. […] Data are representative of six similar experiments. (B) Cells were treated with various concentrations of TGF-β1 as indicated. The cell number was counted after a 4 day incubation. […] The negative values of the inhibition indicate the growth stimulatory activity. Each datapoint is the mean±S.D. of quadruplicate determinations. […] Data are representative of four similar experiments. (C) Cells were treated with various concentrations of TGF-β1 as indicated. The PAI-1 expression in these cells was determined by Northern blot analysis. The expression of G3PDH was used as control. The relative levels of the transcripts were quantified by a PhosphoImager. Data are representative of four similar experiments. […]

Assay [6] relates to H1299/LRP cells. Kind of assay: Cell growth (cell number), H1299/LRP cells. It is filed as cell-based, human. The settings on record: TGF-β1 20 pM or IGFBP-3 1 μg/ml, 3-day.
Assay [7] concerns H1299/vector cells. Kind of assay: Cell growth (cell number), H1299/vector cells. It is filed as cell-based, human. The settings on record: TGF-β1 20 pM or IGFBP-3 1 μg/ml, 3-day.
The test system of assay [8] is IRS-2. The experiment in a line: 32P metabolic labeling and immunoprecipitation of IRS-2, MB102-9 cells. The settings on record: MB102-9 cells (αIβII); IGFBP-3 1 μg/ml, GM-CSF 1 nM. The assay is classed as cell-based, mink.
The test system of assay [9] is DR26 cells. Kind of assay: [methyl-3H] thymidine incorporation, DR26 cells. It is filed as cell-based, mink. As to conditions: IGFBP-3 0.5 μg/ml, DR26. As for the experimental part:
(A,B) DR26 cells were incubated with various concentrations as indicated of IGFBP-3 in the absence (A) and presence (B) of various concentrations of insulin. After 18 hr at 37° C., the [methyl-^3H] thymidine incorporation into cellular DNA was determined. (C,D,E) Mv1Lu, DR26 and R1B cells metabolically labeled with ^[…]-orthophosphate for 2 hr were treated with IGFBP-3 (1:g/ml) or insulin (10 nM) (C). DR26 cells metabolically labeled with ^[…]-orthophosphate for 2 hr were treated with or without IGFBP-3 (1 μg/ml) in the presence of various concentrations of TGF-β1 as indicated (D). Mv1Lu cells expressing αIβI and αIβII chimeric receptors (MB102-16 and MB102-9 cells, respectively) metabolically labeled with ^[…]-orthophosphate for 2 hr were treated with or without IGFBP-3 (1 μg/ml) or GM-CSF (1 nM) (E). After 2 hr at 37° C. (in the absence of […]-orthophosphate in the medium), the ^[…]-labeled IRS-2 was immunoprecipitated and analyzed by 7.5% SDS-PAGE and autoradiography. […]
Mv1Lu cells were plated on 24-well clustered dishes and incubated with various concentrations of TGF-β1 or IGFBP-3 in DMEM containing 0.1% fetal calf serum. After incubation at 37° C. for 18 hr, the cells were pulse-labeled with 1 μCi of [methyl-^3H]thymidine at 37° C. for 2 hr and the [methyl-^3H] thymidine incorporation into cellular DNA was determined as described previously (59). […]

Assay [10] deals with IRS-2. Kind of assay: 32P metabolic labeling and immunoprecipitation of IRS-2, DR26 cells. As to conditions: IGFBP-3 1 μg/ml. It is filed as cell-based, mink.
Assay [11] deals with TβR-V/IGFBP-3 receptor. As to conditions: Mv1Lu cells; read-out: Kd of IGFBP-3 binding to its receptor; cited from earlier work.

The values that follow come from US7741283B2, “Compositions and methods for inhibiting cell proliferation” (St. Louis University, priority 2003, dated 2010).

Where “and” joins values, the source holds several entries; their conditions need not be identical. Equal entries are not always repeated.

Take “IGFBP-3: human insulin-like growth factor binding protein-3 expressed in E. Coli”: the “Effect on cell growth” value was “did not appear to have a significant effect” in assay [1], “inhibited” in [6] and “acted as mitogens or growth stimulators” in assay [7]. In addition, the “Growth inhibitory response (DNA synthesis)” value in assay [2] is on record as “potent growth inhibitory response”. In addition, the “Inhibition of DNA synthesis” value is ~30% and 30-50% in assay [3]; about 80% in assay [9]. Besides, the “Specific dephosphorylation (mobility change) of IRS-2” value in assay [4] and in assay [8] was “induced specific dephosphorylation” throughout. Also, the “Effect on DNA synthesis” value in assay [5] is “did not appear to have a significant effect”. In assay [10], the “Electrophoretic mobility change of IRS-2 compared with Mv1Lu and R1B cells” value is “induced a greater increase in electrophoretic mobility”. Also, the Kd in assay [11] was 6 nM.
